Reference: patent publication US20070128217A1 (priority 2003, published 2007)

Key:
[1] = system: antibodies in sera from SARS patients (sera 1a, 1b, 2, 6, 37, 62, London, SARS-yellow, SARS-green); type: binding, human; parameters: Binding of serum 6 to linear peptides of protein X1 of SARS-CoV Urbani / Binding of serum 37 to linear peptides of protein X1 of SARS-CoV Urbani / Binding of serum 6 to looped/cyclic peptide (PEPSCAN-ELISA) / Binding of serum 37 to looped/cyclic peptide (PEPSCAN-ELISA) / Binding of serum 37 to looped/cyclic peptides of protein X1 of SARS-CoV Urbani / Binding of serum 6 to linear peptides of protein X2 / Binding of serum 37 to linear peptides of protein X2 / Binding of serum 37 to looped/cyclic peptides of protein X2 of SARS-CoV Urbani / Binding of serum 6 to linear peptides of protein M of SARS-CoV Urbani / Binding of serum 37 to linear peptides of protein M of SARS-CoV Urbani / Binding of serum 6 to looped/cyclic peptides of protein M of SARS-CoV Urbani / Binding of serum 37 to looped/cyclic peptides of protein M of SARS-CoV Urbani / Binding of serum 6 to linear peptides of protein X3 of SARS-CoV Urbani / Binding of serum 37 to linear peptides of protein X3 of SARS-CoV Urbani / Binding of serum 37 to looped/cyclic peptides of protein X3 of SARS-CoV Urbani / Binding of serum 6 to linear peptides of protein X4 of SARS-CoV Urbani / Binding of serum 37 to linear peptides of protein X4 of SARS-CoV Urbani / Binding of serum 37 to looped/cyclic peptides of protein X4 of SARS-CoV Urbani / Binding of serum 6 to linear peptides of protein X5 of SARS-CoV Urbani / Binding of serum 37 to linear peptides of protein X5 of SARS-CoV Urbani / Binding of serum 37 to looped/cyclic peptides of protein X5 of SARS-CoV Urbani / Binding of serum 6 to linear peptides of protein N of SARS-CoV Urbani / Binding of serum 37 to linear peptides of protein N of SARS-CoV Urbani / Binding of serum 6 to linear peptide (PEPSCAN-ELISA) / Binding of serum 1a to looped/cyclic peptides of protein N of SARS-CoV Urbani / Binding of serum 1b to looped/cyclic peptides of protein N of SARS-CoV Urbani / Binding of serum 2 to looped/cyclic peptides of protein N of SARS-CoV Urbani / Binding of serum 6 to looped/cyclic peptides of protein N of SARS-CoV Urbani / Binding of serum 37 to looped/cyclic peptides of protein N of SARS-CoV Urbani / Binding of serum 62 to looped/cyclic peptides of protein N of SARS-CoV Urbani / Binding of serum London to looped/cyclic peptides of protein N of SARS-CoV Urbani / Binding of serum SARS-green to looped/cyclic peptides of protein N of SARS-CoV Urbani: unit not given here
[2] = system: control sera (pooled serum of ten healthy LUMC hospital workers; commercial negative donor pooled serum from the Dutch bloodbank); type: binding, human; parameters: Binding of Control serum LUMC to linear peptides / Binding of Control serum Blood-bank to linear peptides / Binding of Control serum LUMC to looped peptides / Binding of Control Serum Blood-Bank to Looped peptides / Binding of Control serum LUMC to linear peptides of the protein M of SARS-CoV Urbani / Binding of Control serum Blood-bank to linear peptides of the protein M of SARS-CoV Urbani / Binding of Control serum LUMC to looped peptides of the protein M of SARS-CoV Urbani / Binding of Control Serum Blood-Bank to Looped peptides of the protein M of SARS-CoV Urbani: unit not given here
[3] = system: rabbit serum obtained by immunizing a rabbit with the SARS-CoV strain Frankfurt 1; type: binding; parameters: Binding of a rabbit serum to linear peptides / Binding of a rabbit serum to looped peptides / Rabbit serum linear peptides / Rabbit serum looped peptides / Binding of a rabbit serum to linear peptides of protein N of SARS-CoV Urbani (Rabbit serum linear peptides) / Binding of a rabbit serum to looped/cyclic peptides of protein N of SARS-CoV Urbani (Rabbit serum looped peptides): unit not given here
[4] = system: recombinant human anti-SARS-CoV antibody 03-018; type: binding; parameters: Binding of antibody 03-018 to linear peptides of the N protein of SARS-CoV Urbani / Binding of antibody 03-018 to looped/cyclic peptides of the N protein of SARS-CoV Urbani: unit not given here

Sequence	Binding of serum 1a to linear peptides of protein N of SARS-CoV Urbani [1]	Binding of serum 1a to looped/cyclic peptides of protein N of SARS-CoV Urbani [1]	Binding of serum 1b to linear peptides of protein N of SARS-CoV Urbani [1]	Binding of serum 1b to looped/cyclic peptides of protein N of SARS-CoV Urbani [1]	Binding of serum 2 to linear peptides of protein N of SARS-CoV Urbani [1]	Binding of serum 2 to looped/cyclic peptides of protein N of SARS-CoV Urbani [1]	Binding of serum 6 to linear peptides of protein N of SARS-CoV Urbani [1]	Binding of serum 6 to looped/cyclic peptides of protein N of SARS-CoV Urbani [1]	Binding of serum 37 to linear peptides of protein N of SARS-CoV Urbani [1]	Binding of serum 37 to looped/cyclic peptides of protein N of SARS-CoV Urbani [1]	Binding of serum 62 to linear peptides of protein N of SARS-CoV Urbani [1]	Binding of serum 62 to looped/cyclic peptides of protein N of SARS-CoV Urbani [1]	Binding of serum London to linear peptides of protein N of SARS-CoV Urbani [1]	Binding of serum London to looped/cyclic peptides of protein N of SARS-CoV Urbani [1]	Binding of serum SARS-green to linear peptides of protein N of SARS-CoV Urbani [1]	Binding of serum SARS-green to looped/cyclic peptides of protein N of SARS-CoV Urbani [1]	Binding of serum SARS-yellow to linear peptides of protein N of SARS-CoV Urbani [1]	Binding of serum SARS-yellow to looped/cyclic peptides of protein N of SARS-CoV Urbani [1]	Binding of a rabbit serum to linear peptides of protein N of SARS-CoV Urbani (Rabbit serum linear peptides) [3]	Binding of a rabbit serum to looped/cyclic peptides of protein N of SARS-CoV Urbani (Rabbit serum looped peptides) [3]	further results
PQGLPNNTASWFTAL	0.2	0.5	0.1	0.3	0.2	0.6	0.1	0.3	0.7	1.0	0.7	0.9	0.4	0.6	0.2	0.4	0.5	0.9	0.1	0.6	Binding of Control Serum Blood-Bank to Looped peptides [2]: 0.9; Binding of Control serum Blood-bank to linear peptides [2]: 0.7; Binding of Control serum LUMC to linear peptides [2]: 0.7; Binding of Control serum LUMC to looped peptides [2]: 0.9; Binding of antibody 03-018 to linear peptides of the N protein of SARS-CoV Urbani [4]: 0.1; Binding of antibody 03-018 to looped/cyclic peptides of the N protein of SARS-CoV Urbani [4]: 0.3
GRNGARPKQRRPQGL	0.2	0.2	0.1	0.1	0.2	0.2	0.2	0.2	0.7	0.4	0.6	0.3	0.4	0.3	0.4	0.2	0.4	0.3	0.2	0.7	Binding of Control Serum Blood-Bank to Looped peptides [2]: 0.5; Binding of Control serum Blood-bank to linear peptides [2]: 0.7; Binding of Control serum LUMC to linear peptides [2]: 0.6; Binding of Control serum LUMC to looped peptides [2]: 0.5; Binding of antibody 03-018 to linear peptides of the N protein of SARS-CoV Urbani [4]: 0.1; Binding of antibody 03-018 to looped/cyclic peptides of the N protein of SARS-CoV Urbani [4]: 0.2
RIGMEVTPSGTWLTY	0.2	0.4	0.1	0.2	0.1	0.5	0.1	0.3	0.4	0.7	0.4	0.8	0.3	0.6	0.5	0.5	0.9	0.5	0.0	0.5	Control Serum Blood-Bank Looped peptides [2]: 0.8; Control serum Blood-bank linear peptides [2]: 0.5; Control serum LUMC linear peptides [2]: 0.5; Control serum LUMC looped peptides [2]: 0.7; Binding of antibody 03-018 to linear peptides of the N protein of SARS-CoV Urbani [4]: 0.1; Binding of antibody 03-018 to looped/cyclic peptides of the N protein of SARS-CoV Urbani [4]: 0.2
QIAQFAPSASAFFGM	0.3	0.5	0.1	0.3	0.2	0.5	0.2	0.3	0.7	0.8	0.6	0.8	0.5	0.5	0.7	0.5	0.7	0.5.	0.1	0.5	Control Serum Blood-Bank Looped peptides [2]: 0.9; Control serum Blood-bank linear peptides [2]: 0.9; Control serum LUMC linear peptides [2]: 0.7; Control serum LUMC looped peptides [2]: 0.7; Binding of antibody 03-018 to linear peptides of the N protein of SARS-CoV Urbani [4]: 0.1; Binding of antibody 03-018 to looped/cyclic peptides of the N protein of SARS-CoV Urbani [4]: 0.3
